Experimental findings from patent US20250275966A1, “GABAA RECEPTOR MODULATOR SALTS, PARTICLES, AND USES THEREOF” (Engrail Therapeutics, Inc., priority 2022, published 2025) are described below.

The data set is classed as physicochemical. As to the method:
A hemi-fumarate Form A (acetonitrile solvate) and hemi-fumarate Form B (non-solvated) of 3-(2,5-difluorophenyl)-7-[1,1-di(methyl-d3)ethyl-2,2,2-d3]-6-[(1-methyl-1H-1,2,4-triazol-5-yl)methoxy]-1,2,4-triazolo[4,3-b]pyridazine were prepared. A seed crystal for Form B was prepared by first combining 20.3 mg ([…]) 3-(2,5-difluorophenyl)-7-[1,1-di(methyl-d3)ethyl-2,2,2-d3]-6-[(1-methyl-1H-1,2,4-triazol-5-yl)methoxy]-1,2,4-triazolo[4,3-b]pyridazine with 1000 μL acetone. Fumaric acid/EtOH was added ([…], 1.0 eq) and the sample was continuously stirred while cycling the temperature between 40° C. and 5° C. (heating and cooling at 2° C./min. with 1 hour hold at 40° C. and 5° C.) for 48 hours. The samples were isolated at 5° C. and the suspension was equilibrated with stirring at 20° C. for 2 hours. Birefringent solids were harvested by filtration at room temperature and air-dried overnight. 3-(2,5-difluorophenyl)-7-[1,1-di(methyl-d3)ethyl-2,2,2-d3]-6-[(1-methyl-1H-1,2,4-triazol-5-yl)methoxy]-1,2,4-triazolo[4,3-b]pyridazine (5.51 mmol) was combined with acetone ([…], 16 vol). To the resulting solution (with minimal residual solids), fumaric acid (575 mg, 1.0 eq) was added, followed by seeding, e.g., with Form B (˜10 mg). […]

With `[2H]C([2H])([2H])C(c1cc2nnc(-c3cc(F)ccc3F)n2nc1OCc1ncnn1C)(C([2H])([2H])[2H])C([2H])([2H])[2H]` [Form A, 3-(2,5-difluorophenyl)-7-[1,1-di(methyl-d3)ethyl-2,2,2-d3]-6-[(1-methyl-1H-1,2,4-triazol-5-yl)methoxy]-1,2,4-triazolo[4,3-b]pyridazine], the “solid form stability at ambient conditions” value is on record as “converted to Form B”.
